Data as given in patent US10988477B2 (Merck Patent GmbH, priority 2018, dated 2021).

What was measured:
[1] = target: GCN2 kinase (Homo sapiens, UniProt Q9P2K8); assay: GCN2 enzyme inhibition assay (Transcreener ADP2 fluorescence polarization); type: biochemical; settings: compounds of Formula II; 280 μM ATP, 4 nM GCN2 kinase
Outline: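 Inhibition of 4 nM GCN2 was measured with compound up to 8 μM final, ATP 280 μM and (RS)7 peptide 200 μM over a 1 h, 25 °C reaction. ADP FP readout; IC50 and Ki(app) calculated from percent inhibition.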

[2] = target: intracellular GCN2 (phosphorylation of the GCN2 substrate eIF2α) (Homo sapiens, UniProt Q9P2K8); assay: GCN2 cellular inhibition assay (AlphaScreen SureFire P-eIF2α Ser51, borrelidin-treated U2OS cells); type: cell-based; settings: compounds of Formula II; biomarker assay, phosphorylated eIF2α Ser51 in borrelidin-treated U2OS cells
Outline: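 Read-out: AlphaScreen SureFire phospho-eIF2α (Ser51) signal in U2OS lysates. Cells get 4-fold compound dilutions (top 40 μM final) plus 10 μM borrelidin, 1 h, 37 °C. Percent inhibition is relative to borrelidin-alone controls.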

Sequence of GCN2 kinase (Q9P2K8 whole entry): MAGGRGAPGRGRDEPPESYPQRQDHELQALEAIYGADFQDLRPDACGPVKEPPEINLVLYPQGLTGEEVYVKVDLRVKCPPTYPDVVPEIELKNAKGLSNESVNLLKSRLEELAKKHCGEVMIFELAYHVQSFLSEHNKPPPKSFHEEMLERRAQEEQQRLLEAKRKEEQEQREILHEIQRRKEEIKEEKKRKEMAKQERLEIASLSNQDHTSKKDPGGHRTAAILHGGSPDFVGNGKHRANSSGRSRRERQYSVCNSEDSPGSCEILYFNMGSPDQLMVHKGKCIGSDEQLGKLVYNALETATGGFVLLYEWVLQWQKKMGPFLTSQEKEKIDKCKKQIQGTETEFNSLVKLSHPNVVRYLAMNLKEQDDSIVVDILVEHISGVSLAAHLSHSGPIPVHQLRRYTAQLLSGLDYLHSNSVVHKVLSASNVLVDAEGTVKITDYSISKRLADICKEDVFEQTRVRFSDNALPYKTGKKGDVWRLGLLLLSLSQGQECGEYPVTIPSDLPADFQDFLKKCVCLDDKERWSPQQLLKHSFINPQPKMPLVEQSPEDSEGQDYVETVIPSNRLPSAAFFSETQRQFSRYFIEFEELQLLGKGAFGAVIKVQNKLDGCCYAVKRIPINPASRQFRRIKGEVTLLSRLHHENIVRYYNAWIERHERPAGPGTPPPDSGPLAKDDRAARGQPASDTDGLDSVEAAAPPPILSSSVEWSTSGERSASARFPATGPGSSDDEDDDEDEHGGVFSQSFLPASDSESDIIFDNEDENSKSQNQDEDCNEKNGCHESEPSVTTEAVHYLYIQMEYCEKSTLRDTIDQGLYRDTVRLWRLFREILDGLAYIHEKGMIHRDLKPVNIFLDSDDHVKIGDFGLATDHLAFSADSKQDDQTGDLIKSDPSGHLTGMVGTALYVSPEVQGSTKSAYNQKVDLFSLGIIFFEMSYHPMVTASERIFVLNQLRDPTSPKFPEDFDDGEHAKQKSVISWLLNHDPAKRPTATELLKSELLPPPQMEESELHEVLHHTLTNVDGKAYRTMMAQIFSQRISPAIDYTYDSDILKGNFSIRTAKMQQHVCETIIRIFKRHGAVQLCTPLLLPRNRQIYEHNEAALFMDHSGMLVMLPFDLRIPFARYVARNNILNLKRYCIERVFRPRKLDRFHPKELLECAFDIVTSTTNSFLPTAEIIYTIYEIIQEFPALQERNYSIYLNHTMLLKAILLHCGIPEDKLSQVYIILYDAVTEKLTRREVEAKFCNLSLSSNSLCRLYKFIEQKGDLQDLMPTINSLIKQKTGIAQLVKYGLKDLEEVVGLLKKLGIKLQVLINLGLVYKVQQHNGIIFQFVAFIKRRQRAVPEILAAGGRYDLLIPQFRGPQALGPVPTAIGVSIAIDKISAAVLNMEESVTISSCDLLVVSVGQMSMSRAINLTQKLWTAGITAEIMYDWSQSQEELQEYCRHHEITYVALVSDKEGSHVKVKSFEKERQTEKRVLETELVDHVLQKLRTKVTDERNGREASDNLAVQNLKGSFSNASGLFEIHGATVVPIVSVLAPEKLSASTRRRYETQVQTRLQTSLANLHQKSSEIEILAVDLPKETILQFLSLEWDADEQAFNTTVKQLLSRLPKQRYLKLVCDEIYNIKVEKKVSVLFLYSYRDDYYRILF
Sequence of intracellular GCN2 (phosphorylation of the GCN2 substrate eIF2α) (Q9P2K8 whole entry): as above

SMILES	Ki [1]	IC50 [2]
FC(F)c1ccc2ncc(-c3cc(N4CC5(COC5)C4)ncn3)n2n1 [II-252, 6-(6-(6-(Difluoromethyl)imidazo[1,2-b]pyridazin-3-yl)pyrimidin-4-yl)-2-oxa-6-azaspiro[3.3]heptane]	0.01 to 1 µM	> 5 µM
CC(=O)N1CCC(c2cc(-c3cnc4ccc(C(F)F)nn34)ncn2)C1 (centres unmarked) [II-253, 1-(3-(6-(6-(Difluoromethyl)imidazo[1,2-b]pyridazin-3-yl)pyrimidin-4-yl)pyrrolidin-1-yl)ethan-1-one]	0.01 to 1 µM	> 5 µM
O=C(NCCO)N1CCC(c2cc(-c3cnc4ccc(C(F)F)nn34)ncn2)C1 (centres unmarked) [II-254, 3-(6-(6-(Difluoromethyl)imidazo[1,2-b]pyridazin-3-yl)pyrimidin-4-yl)-N-(2-hydroxyethyl)pyrrolidine-1-carboxamide]	0.01 to 1 µM	> 5 µM
CS(=O)(=O)CCN1CCC(c2cc(-c3cnc4ccc(C(F)F)nn34)ncn2)C1 (centres unmarked) [II-255, 6-(Difluoromethyl)-3-(6-(1-(2-(methylsulfonyl)ethyl)pyrrolidin-3-yl)pyrimidin-4-yl)imidazo[1,2-b]pyridazine]	0.01 to 1 µM	> 5 µM
CS(=O)(=O)N1CCC2(CCCCN2c2cc(-c3cnc4ccc(C(F)F)nn34)ncn2)C1 (centres unmarked) [II-256, 6-(6-(6-(Difluoromethyl)imidazo[1,2-b]pyridazin-3-yl)pyrimidin-4-yl)-2-(methylsulfonyl)-2,6-diazaspiro[4.5]decane]	0.01 to 1 µM	> 5 µM
CC1(C)CN(c2cc(-c3cnc4ccc(C(F)F)nn34)ncn2)C[C@H](CNS(C)(=O)=O)O1 [II-257, (R)—N-((4-(6-(6-(Difluoromethyl)imidazo[1,2-b]pyridazin-3-yl)pyrimidin-4-yl)-6,6-dimethylmorpholin-2-yl)methyl)methanesulfonamide]	0.01 to 1 µM	0.5 to 5 µM
CS(=O)(=O)NCC1CN(c2cc(-c3cnc4ccc(C(F)F)nn34)ncn2)CC(F)(F)C1 (centres unmarked) [II-258, N-((1-(6-(6-(Difluoromethyl)imidazo[1,2-b]pyridazin-3-yl)pyrimidin-4-yl)-5,5-difluoropiperidin-3-yl)methyl)methanesulfonamide]	< 0.01 µM	< 0.5 µM
CN(C)C1CN(c2cc(-c3cnc4ccc(C(F)F)nn34)ncn2)CC(CNS(C)(=O)=O)C1(F)F (centres unmarked) [II-259, N-((1-(6-(6-(Difluoromethyl)imidazo[1,2-b]pyridazin-3-yl)pyrimidin-4-yl)-5-(dimethylamino)-4,4-difluoropiperidin-3-yl)methyl)methanesulfonamide]	< 0.01 µM	< 0.5 µM
CN(C)C1CN(c2cc(-c3cnc4ccc(C(F)F)nn34)ncn2)CC(CNS(C)(=O)=O)C1(F)F (centres unmarked) [II-260, N-((1-(6-(6-(Difluoromethyl)imidazo[1,2-b]pyridazin-3-yl)pyrimidin-4-yl)-5-(dimethylamino)-4,4-difluoropiperidin-3-yl)methyl)methanesulfonamide]	0.01 to 1 µM	0.5 to 5 µM

Next, values leading:

Ki [1]	IC50 [2]	SMILES
0.01 to 1 µM	0.5 to 5 µM	CC(=O)NCC1CCCN(c2cc(-c3cnc4ccc(C(F)F)nn34)ncn2)C1 (centres unmarked) [II-261, N-((1-(6-(6-(Difluoromethyl)imidazo[1,2-b]pyridazin-3-yl)pyrimidin-4-yl)piperidin-3-yl)methyl)acetamide]
< 0.01 µM	< 0.5 µM	O=S(=O)(NCC1CCCN(c2cc(-c3cnc4ccc(C(F)F)nn34)ncn2)C1)C1CC1 (centres unmarked) [II-262, N-((1-(6-(6-(Difluoromethyl)imidazo[1,2-b]pyridazin-3-yl)pyrimidin-4-yl)piperidin-3-yl)methyl)cyclopropanesulfonamide]
0.01 to 1 µM	0.5 to 5 µM	CCC1COC(CNS(C)(=O)=O)CN1c1cc(-c2cnc3ccc(C(F)F)nn23)ncn1 (centres unmarked) [II-267, N-((4-(6-(6-(Difluoromethyl)imidazo[1,2-b]pyridazin-3-yl)pyrimidin-4-yl)-5-ethylmorpholin-2-yl)methyl)methanesulfonamide]
< 0.01 µM	< 0.5 µM	CC1CCC(CNS(C)(=O)=O)C(C)N1c1cc(-c2cnc3ccc(C(F)F)nn23)ncn1 (centres unmarked) [II-268, N-((1-(6-(6-(Difluoromethyl)imidazo[1,2-b]pyridazin-3-yl)pyrimidin-4-yl)-2,6-dimethylpiperidin-3-yl)methyl)methanesulfonamide]
< 0.01 µM	0.5 to 5 µM	C[C@H]1CN(c2cc(-c3cnc4ccc(C(F)F)nn34)ncc2F)C[C@@H](CNS(C)(=O)=O)C1(F)F [II-270, N-[[(3S,5S)-1-[2-[6-(Difluoromethyl)imidazo[1,2-b]pyridazin-3-yl]-5-fluoro-4-pyridyl]-4,4-difluoro-5-methyl-3-piperidyl]methyl]methanesulfonamide]
0.01 to 1 µM	0.5 to 5 µM	CC1CCC(CNS(C)(=O)=O)CN1c1cc(-c2cnc3ccc(C(F)F)nn23)ncc1F (centres unmarked) [II-271, N-[[1-[2-[6-(Difluoromethyl)imidazo[1,2-b]pyridazin-3-yl]-5-fluoro-4-pyridyl]-6-methyl-3-piperidyl]methyl]methanesulfonamide]
0.01 to 1 µM	> 5 µM	O=S(=O)(NCC1CCCN(c2cc(-c3cnc4ccc(C(F)F)nn34)ncn2)C1)C1CNC1 (centres unmarked) [II-272, N-((1-(6-(6-(Difluoromethyl)imidazo[1,2-b]pyridazin-3-yl)pyrimidin-4-yl)piperidin-3-yl)methyl)azetidine-3-sulfonamide]
0.01 to 1 µM	0.5 to 5 µM	CS(=O)(=O)N1CC2(CN(c3cc(-c4cnc5ccc(C(F)F)nn45)ncn3)CCO2)C1 [II-273, 8-(6-(6-(Difluoromethyl)imidazo[1,2-b]pyridazin-3-yl)pyrimidin-4-yl)-2-(methylsulfonyl)-5-oxa-2,8-diazaspiro[3.5]nonane]
0.01 to 1 µM	> 5 µM	FC(F)c1ccc2ncc(-c3cc(N4CCC5C(C4)C5(F)F)ncn3)n2n1 (centres unmarked) [II-274, 3-(6-(7,7-Difluoro-3-azabicyclo[4.1.0]heptan-3-yl)pyrimidin-4-yl)-6-(difluoromethyl)imidazo[1,2-b]pyridazine]
0.01 to 1 µM	> 5 µM	CS(=O)(=O)N1CCCC2(CN(c3cc(-c4cnc5ccc(C(F)F)nn45)ncn3)C2)C1 [II-279, 6-(Difluoromethyl)-3-(6-(6-(methylsulfonyl)-2,6-diazaspiro[3.5]nonan-2-yl)pyrimidin-4-yl)imidazo[1,2-b]pyridazine]
0.01 to 1 µM	> 5 µM	CS(=O)(=O)N1CCOC2(CN(c3cc(-c4cnc5ccc(C(F)F)nn45)ncn3)C2)C1 [II-280, 2-(6-(6-(Difluoromethyl)imidazo[1,2-b]pyridazin-3-yl)pyrimidin-4-yl)-8-(methylsulfonyl)-5-oxa-2,8-diazaspiro[3.5]nonane]
< 0.01 µM	< 0.5 µM	CS(=O)(=O)N1CC2(CCCN(c3cc(-c4cnc5ccc(C(F)F)nn45)ncn3)C2)C1 [II-281, 6-(Difluoromethyl)-3-(6-(2-(methylsulfonyl)-2,6-diazaspiro[3.5]nonan-6-yl)pyrimidin-4-yl)imidazo[1,2-b]pyridazine]
0.01 to 1 µM	> 5 µM	CS(=O)(=O)N1CC2CCN(c3cc(-c4cnc5ccc(C(F)F)nn45)ncn3)C2C1 (centres unmarked) [II-282, 6-(Difluoromethyl)-3-(6-(5-(methylsulfonyl)hexahydropyrrolo[3,4-b]pyrrol-1 (2H)-yl)pyrimidin-4-yl)imidazo[1,2-b]pyridazine]
